Bridge positions count the residues as written; N and C are the ends. Square brackets hold non-standard residues; d marks the D form. Peptide text beside a SMILES is read from it. * marks the point of attachment. DOTA = O=C(O)CN1CCN(CC(=O)O)CCN(CC(=O)*)CCN(CC(=O)O)CC1; Trp(7-aza) = N[C@@H](Cc1c[nH]c2ncccc12)C(=O)O; Bip = N[C@@H](Cc1ccc(-c2ccccc2)cc1)C(=O)O; Pro(cis-4-F) = O=C(O)[C@@H]1C[C@H](F)CN1; Hyp = O=C(O)[C@@H]1C[C@@H](O)CN1; αMeD = C[C@](N)(CC(=O)O)C(=O)O; Pip = O=C(O)[C@@H]1CCCCN1; hSer = N[C@@H](CCO)C(=O)O; Nle = CCCC[C@H](N)C(=O)O; Ahx = NCCCCCC(=O)O A value given as a limit tells only on which side of the number the result lay.

For this assay, the target named is T1, human DLL3 (Homo sapiens, UniProt Q9NYJ7).
T1 construct: biotin (biotinylated)
T1 sequence (Q9NYJ7 27-618): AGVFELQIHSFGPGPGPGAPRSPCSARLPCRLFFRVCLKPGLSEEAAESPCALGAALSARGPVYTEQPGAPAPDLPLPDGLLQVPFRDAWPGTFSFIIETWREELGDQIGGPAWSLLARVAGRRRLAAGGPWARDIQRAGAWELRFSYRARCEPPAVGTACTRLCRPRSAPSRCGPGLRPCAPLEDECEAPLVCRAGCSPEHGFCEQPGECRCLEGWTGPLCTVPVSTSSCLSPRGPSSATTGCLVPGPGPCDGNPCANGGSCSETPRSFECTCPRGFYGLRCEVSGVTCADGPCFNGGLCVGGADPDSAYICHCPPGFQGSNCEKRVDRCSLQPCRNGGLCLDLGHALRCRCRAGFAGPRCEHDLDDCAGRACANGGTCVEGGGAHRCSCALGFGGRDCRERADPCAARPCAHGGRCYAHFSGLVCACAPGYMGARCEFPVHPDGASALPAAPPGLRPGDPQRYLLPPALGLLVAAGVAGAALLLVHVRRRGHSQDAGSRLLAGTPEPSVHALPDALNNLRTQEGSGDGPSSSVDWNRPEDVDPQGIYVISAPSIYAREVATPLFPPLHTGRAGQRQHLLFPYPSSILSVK
Kind of assay: Affinity determination by Surface Plasmon Resonance (SPR), Biacore, 1:1 binding model. The following applies: biotinylated human DLL3 on streptavidin chip, 25° C.; NB = nonbinding. Put shortly: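 SPR with biotinylated human DLL3 captured on a streptavidin chip, with a reference surface subtracted. Samples were injected at several concentrations at 100 μL/min in phosphate buffer with 137 mM NaCl, 2.7 mM KCl, 0.05% P20 and 2% DMSO. Kinetic and affinity constants came from a 1:1 binding fit.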
A general note: Surface plasmon resonance follows binding to a sensor surface in real time, without labels.
As a reminder, the Kd is a measure of binding affinity in units of concentration. Regarding `CSCC[C@H](NC(C)=O)C(=O)N[C@@H](CO)C(=O)N[C@@H](CC(=O)O)C(=O)N[C@H]1CSSC[C@@H](C(=O)N2C[C@@H](F)C[C@H]2C(=O)N[C@@H](Cc2ccccc2)C(=O)N[C@@H](CC(=O)O)C(=O)N[C@H](CCCCNC(=O)CN2CCN(CC(=O)O)CCN(CC(=O)O)CCN(CC(=O)O)CC2)C(N)=O)NC(=O)[C@H](CC(N)=O)NC(=O)[C@H](Cc2c[nH]c3ccccc23)NC(=O)[C@H](CCC(N)=O)NC(=O)[C@H](CC(C)C)NC(=O)[C@H](Cc2c[nH]c3ccccc23)NC1=O` [compound 43, Ac-M-S-D-C(3)-W-L-Q-W-N-C(3)-(cis4Fluoro-P)-F-D-D-Lys(DOTA)-CONH2] (Ac-MSDCWLQWNC[Pro(cis-4-F)]FD[dK](DOTA)-NH2; disulfide 4-10), the affinity, expressed as Kd, was 28 nM.

`CSCC[C@H](NC(C)=O)C(=O)N[C@@H](CO)C(=O)N[C@@H](CC(=O)O)C(=O)N[C@H]1CSSC[C@@H](C(=O)N2C[C@H](O)C[C@H]2C(=O)N[C@@H](Cc2ccccc2)C(=O)N[C@@H](CC(=O)O)C(=O)N[C@H](CCCCNC(=O)CN2CCN(CC(=O)O)CCN(CC(=O)O)CCN(CC(=O)O)CC2)C(N)=O)NC(=O)[C@H](CC(N)=O)NC(=O)[C@H](Cc2c[nH]c3ccccc23)NC(=O)[C@H](CCC(N)=O)NC(=O)[C@H](CC(C)C)NC(=O)[C@H](Cc2c[nH]c3ccccc23)NC1=O` [compound 44, Ac-M-S-D-C(3)-W-L-Q-W-N-C(3)-(trans4OH-P)-F-D-D-Lys(DOTA)-CONH2] (Ac-MSDCWLQWNC[Hyp]FD[dK](DOTA)-NH2; disulfide 4-10) came in with a Kd of 26 nM.

`CSCC[C@H](NC(C)=O)C(=O)N[C@@H](CO)C(=O)N[C@@H](CC(=O)O)C(=O)N[C@H]1CSSC[C@@H](C(=O)N2CCCC[C@H]2C(=O)N[C@@H](Cc2ccccc2)C(=O)N[C@@H](CC(=O)O)C(=O)N[C@H](CCCCNC(=O)CN2CCN(CC(=O)O)CCN(CC(=O)O)CCN(CC(=O)O)CC2)C(N)=O)NC(=O)[C@H](CC(N)=O)NC(=O)[C@H](Cc2c[nH]c3ccccc23)NC(=O)[C@H](CCC(N)=O)NC(=O)[C@H](CC(C)C)NC(=O)[C@H](Cc2c[nH]c3ccccc23)NC1=O` [compound 47, Ac-M-S-D-C(3)-W-L-Q-W-N-C(3)-(Pip)-F-D-D-Lys(DOTA)-CONH2] (Ac-MSDCWLQWNC[Pip]FD[dK](DOTA)-NH2; disulfide 4-10) came in with a Kd of 26 nM. In turn, `CSCC[C@H](NC(C)=O)C(=O)N[C@@H](CO)C(=O)N[C@@H](CC(=O)O)C(=O)N[C@H]1CSSC[C@@H](C(=O)N2CCC[C@H]2C(=O)N[C@@H](Cc2ccccc2)C(=O)N[C@@](C)(CC(=O)O)C(=O)N[C@H](CCCCNC(=O)CN2CCN(CC(=O)O)CCN(CC(=O)O)CCN(CC(=O)O)CC2)C(N)=O)NC(=O)[C@H](CC(N)=O)NC(=O)[C@H](Cc2c[nH]c3ccccc23)NC(=O)[C@H](CCC(N)=O)NC(=O)[C@H](CC(C)C)NC(=O)[C@H](Cc2c[nH]c3ccccc23)NC1=O` [compound 53, Ac-M-S-D-C(3)-W-L-Q-W-N-C(3)-P-F-(aMeD)-D-Lys(DOTA)-CONH2] (Ac-MSDCWLQWNCPF[αMeD][dK](DOTA)-NH2; disulfide 4-10) came in with a Kd above 300 nM. The figure for `CSCC[C@H](NC(C)=O)C(=O)N[C@@H](CO)C(=O)N[C@@H](CC(=O)O)C(=O)N[C@H]1CSSC[C@@H](C(=O)N2CCC[C@H]2C(=O)N[C@@H](Cc2ccccc2)C(=O)N[C@@H](CCO)C(=O)N[C@H](CCCCNC(=O)CN2CCN(CC(=O)O)CCN(CC(=O)O)CCN(CC(=O)O)CC2)C(N)=O)NC(=O)[C@H](CC(N)=O)NC(=O)[C@H](Cc2c[nH]c3ccccc23)NC(=O)[C@H](CCC(N)=O)NC(=O)[C@H](CC(C)C)NC(=O)[C@H](Cc2c[nH]c3ccccc23)NC1=O` [compound 54, Ac-M-S-D-C(3)-W-L-Q-W-N-C(3)-P-F-(hSer)-D-Lys(DOTA)-CONH2] (Ac-MSDCWLQWNCPF[hSer][dK](DOTA)-NH2; disulfide 4-10) is above 300 nM; for `CSCC[C@H](NC(C)=O)C(=O)N[C@@H](CO)C(=O)N[C@@H](CC(=O)O)C(=O)N[C@H]1CSSC[C@@H](C(=O)N2CCC[C@H]2C(=O)N[C@@H](Cc2ccccc2)C(=O)N[C@@H](CC(=O)O)C(=O)N[C@H](CCCCNC(=O)CN2CCN(CC(=O)O)CCN(CC(=O)O)CCN(CC(=O)O)CC2)C(N)=O)NC(=O)[C@H](CC(N)=O)NC(=O)[C@H](Cc2c[nH]c3ccccc23)NC(=O)[C@H](CCC(N)=O)NC(=O)[C@H](CC(C)C)NC(=O)[C@H](Cc2ccc(-c3ccccc3)cc2)NC1=O` [compound 55, Ac-M-S-D-C(3)-(BIP)-L-Q-W-N-C(3)-P-F-D-D-Lys(DOTA)-CONH2] (Ac-MSDC[Bip]LQWNCPFD[dK](DOTA)-NH2; disulfide 4-10) it is above 300 nM. In turn, `CSCC[C@H](NC(C)=O)C(=O)N[C@@H](CO)C(=O)N[C@@H](CC(=O)O)C(=O)N[C@H]1CSSC[C@@H](C(=O)N2CCC[C@H]2C(=O)N[C@@H](Cc2ccccc2)C(=O)N[C@@H](CC(=O)O)C(=O)N[C@H](CCCCNC(=O)CN2CCN(CC(=O)O)CCN(CC(=O)O)CCN(CC(=O)O)CC2)C(N)=O)NC(=O)[C@H](CC(N)=O)NC(=O)[C@H](Cc2c[nH]c3ccccc23)NC(=O)[C@H](CCC(N)=O)NC(=O)[C@H](CC(C)C)NC(=O)[C@H](Cc2c[nH]c3ncccc23)NC1=O` [compound 57, Ac-M-S-D-C(3)-(7Aza-W)-L-Q-W-N-C(3)-P-F-D-D-Lys(DOTA)-CONH2] (Ac-MSDC[Trp(7-aza)]LQWNCPFD[dK](DOTA)-NH2; disulfide 4-10) gave a dissociation constant (Kd) above 300 nM. The result for `CSCC[C@H](NC(C)=O)C(=O)N[C@@H](CO)C(=O)N[C@@H](CC(=O)O)C(=O)N[C@H]1CSSC[C@@H](C(=O)N2CCC[C@H]2C(=O)N[C@@H](Cc2ccccc2)C(=O)N[C@@H](CC(=O)O)C(=O)N[C@H](CCCCNC(=O)CN2CCN(CC(=O)O)CCN(CC(=O)O)CCN(CC(=O)O)CC2)C(N)=O)NC(=O)[C@H](CC(N)=O)NC(=O)[C@H](Cc2ccc(-c3ccccc3)cc2)NC(=O)[C@H](CCC(N)=O)NC(=O)[C@H](CC(C)C)NC(=O)[C@H](Cc2c[nH]c3ccccc23)NC1=O` [compound 60, Ac-M-S-D-C(3)-W-L-Q-(BIP)-N-C(3)-P-F-D-D-Lys(DOTA)-CONH2] (Ac-MSDCWLQ[Bip]NCPFD[dK](DOTA)-NH2; disulfide 4-10) reads above 300 nM; that for `CCCC[C@@H]1NC(=O)[C@H](Cc2c[nH]c3ccccc23)NC(=O)[C@@H](NC(=O)[C@H](CC(=O)O)NC(=O)[C@H](CO)NC(=O)[C@H](CCSC)NC(C)=O)CSSC[C@@H](C(=O)N2CCC[C@H]2C(=O)N[C@@H](Cc2ccccc2)C(=O)N[C@@H](CC(=O)O)C(=O)N[C@H](CCCCNC(=O)CN2CCN(CC(=O)O)CCN(CC(=O)O)CCN(CC(=O)O)CC2)C(N)=O)NC(=O)[C@H](CC(N)=O)NC(=O)[C@H](Cc2c[nH]c3ccccc23)NC(=O)[C@H](CCC(N)=O)NC1=O` [compound 68, Ac-M-S-D-C(3)-W-(Nle)-Q-W-N-C(3)-P-F-D-D-Lys(DOTA)-CONH2] (Ac-MSDCW[Nle]QWNCPFD[dK](DOTA)-NH2; disulfide 4-10), 15.9 nM. Turning to `CC(C)C[C@@H]1NC(=O)[C@H](Cc2c[nH]c3ccccc23)NC(=O)[C@@H](NC(=O)[C@H](CC(=O)O)NC(=O)[C@H](CO)NC(=O)CCCCCNC(=O)CN2CCN(CC(=O)O)CCN(CC(=O)O)CCN(CC(=O)O)CC2)CSSC[C@@H](C(=O)N2CCC[C@H]2C(=O)N[C@@H](Cc2ccccc2)C(=O)N[C@@H](CC(=O)O)C(N)=O)NC(=O)[C@H](CC(N)=O)NC(=O)[C@H](Cc2c[nH]c3ccccc23)NC(=O)[C@H](CCC(N)=O)NC1=O` [compound 72, DOTA-Ahx-S-D-C(3)-W-L-Q-W-N-C(3)-P-F-D-CONH2] ({DOTA-Ahx}-SDCWLQWNCPFD-NH2; disulfide 3-9), the Kd was 11 nM. The result for `CC(C)C[C@@H]1NC(=O)[C@H](Cc2c[nH]c3ccccc23)NC(=O)[C@@H](NC(=O)[C@H](CC(=O)O)NC(=O)[C@H](CO)NC(=O)CCCCCNC(=O)CN2CCN(CC(=O)O)CCN(CC(=O)O)CCN(CC(=O)O)CC2)CSSC[C@@H](C(=O)N2CCC[C@H]2C(=O)N[C@@H](Cc2ccccc2)C(=O)N[C@@H](CC(=O)O)C(=O)N[C@H](CCCCN)C(N)=O)NC(=O)[C@H](CC(N)=O)NC(=O)[C@H](Cc2c[nH]c3ccccc23)NC(=O)[C@H](CCC(N)=O)NC1=O` [compound 73, DOTA-Ahx-S-D-C(3)-W-L-Q-W-N-C(3)-P-F-D-(D-Lys)-NH2] ({DOTA-Ahx}-SDCWLQWNCPFD[dK]-NH2; disulfide 3-9) reads above 100 nM; that for `CC(=O)NCCCCCC(=O)N[C@@H](CO)C(=O)N[C@@H](CC(=O)O)C(=O)N[C@H]1CSSC[C@@H](C(=O)N2CCC[C@H]2C(=O)N[C@@H](Cc2ccccc2)C(=O)N[C@@H](CC(=O)O)C(=O)N[C@H](CCCCNC(=O)CN2CCN(CC(=O)O)CCN(CC(=O)O)CCN(CC(=O)O)CC2)C(N)=O)NC(=O)[C@H](CC(N)=O)NC(=O)[C@H](Cc2c[nH]c3ccccc23)NC(=O)[C@H](CCC(N)=O)NC(=O)[C@H](CC(C)C)NC(=O)[C@H](Cc2c[nH]c3ccccc23)NC1=O` [compound 74, Ac-Ahx-S-D-C(3)-W-L-Q-W-N-C(3)-P-F-D-D-Lys(DOTA)-CONH2] (Ac-[Ahx]SDCWLQWNCPFD[dK](DOTA)-NH2; disulfide 4-10), 9 nM.

For the origin of these results see patent US20250186541A1, “DLL3 TARGETING PEPTIDES AND CONSTRUCTS THEREOF” (MARIANA ONCOLOGY INC., priority 2023, published 2025).
